Experimental findings from BindingDB's records for doi:10.1021/jm00101a030 (University of Michigan, 1992) are described below.

This test can be described thus: Binding affinity against Opioid receptor delta 1 in guinea pig brain homogenates, using [3H]DPDPE as radioligand.

In the case of `CC1(C)SSC[C@@H](NC(=O)[C@H]2NCC[C@@H]2c2ccc(O)cc2)C(=O)N[C@@H](Cc2ccccc2)C(=O)N[C@@H]1C(=O)O`, the inhibition constant (Ki) turned out to be 0.66 nM. With `CC1(C)SSC[C@@H](NC(=O)[C@@H]2NCC[C@@H]2c2ccc(O)cc2)C(=O)N[C@@H](Cc2ccccc2)C(=O)N[C@@H]1C(=O)O`, the Ki was 84 nM.

A word on the Ki: it is a dissociation constant, usually derived from enzyme kinetics or from competition with a known ligand. A lower Ki goes with tighter binding.
